Experimental data: the Deep4Chem optical property database

Assay: photoluminescence quantum yield (fraction); solvent given as SMILES

Compound `c1ccc(-c2nc3ccccc3nc2-c2ccc(-n3c4ccccc4c4ccccc43)cc2)cc1` has a photoluminescence quantum yield (in Cc1ccccc1) of 0.32.

Work on `CCCCCCCCCCCCC(CCCCCCCCCC)Cn1c2cc(/C=C/c3nc4ccccc4s3)c3cccc4c5cccc6c(/C=C/c7nc8ccccc8s7)cc1c(c65)c2c34` (stereo unspecified) yielded a photoluminescence quantum yield (in C1CCCCC1) of 0.42, a photoluminescence quantum yield (in CC#N) of 0.434 and a photoluminescence quantum yield (in Cc1ccccc1) of 0.398. It also gave a photoluminescence quantum yield (in ClCCl) of 0.369.

For `COC(=O)c1cc(OC)ccc1OC`, the photoluminescence quantum yield (in CO) was 0.64.

With `COc1cc2c(cc1OC)C1=C[C@H](c3ccccc3)C3(C(C#N)=C(C#N)N1CC2)c1cc(Br)ccc1-c1ccc(Br)cc13` the photoluminescence quantum yield (in ClCCl) was 0.00059.

For `CN(C)c1ccc(/C=C/c2ncnc3ccccc23)cc1`, the photoluminescence quantum yield (in ClCCl) was 0.07.

Work on `Cc1cc(C)c(B(c2c(C)cc(C)cc2C)N2c3ccccc3C(c3ccccc3)(c3ccccc3)c3ccccc32)c(C)c1` yielded a photoluminescence quantum yield (in C1CCCCC1) of 0.732, a photoluminescence quantum yield (in Cc1ccccc1) of 0.974 and a photoluminescence quantum yield (in ClCCl) of 0.891.

Compound `CC[N+]1(CC)CN2C(=N1)C(C(=O)O)=Cc1cc(C)ccc12` has a photoluminescence quantum yield (in O) of 0.269.

Compound `CCCCCCN1C(=O)c2cccc3cc(/N=C\c4nc5ccccc5s4)cc(c23)C1=O` has a photoluminescence quantum yield (in ClC(Cl)Cl) of 0.002.

Work on `CCC1=C(C)C(=O)n2c1cc1c(CCC(=O)OC)c(C)c(C)n1c2=O` yielded a photoluminescence quantum yield (in CO) of 0.82, a photoluminescence quantum yield (in CS(C)=O) of 1 and a photoluminescence quantum yield (in ClC(Cl)Cl) of 0.95. For the same compound, the photoluminescence quantum yield (in c1ccccc1) was 1.

With `CC(=O)c1ccc(-c2nc3ccc(N(C)C)cc3s2)cc1` the photoluminescence quantum yield (in C1CCCCC1) was 0.88, the photoluminescence quantum yield (in CC#N) was 0.88 and the photoluminescence quantum yield (in CO) was 0.041. For the same compound, the photoluminescence quantum yield (in ClC(Cl)Cl) was 0.99.

Work on `O=C1NC(c2ccccc2)=N/C1=C\c1ccccc1` yielded a photoluminescence quantum yield (in C1COCCO1) of 0.001.

For `Oc1ccc(C2=[N+]3C(=C(c4ccccc4)c4cccn4[B-]3(F)F)C=C2)cc1`, the photoluminescence quantum yield (in ClC(Cl)Cl) was 0.06.

For `CN(C)c1ccc2cc(C3=[O+][B-](F)(F)OC(c4ccccc4)=C3)ccc2c1`, the photoluminescence quantum yield (in C1CCOC1) was 0.1, the photoluminescence quantum yield (in CC#N) was 0.007 and the photoluminescence quantum yield (in CC(C)=O) was 0.01. For the same compound, the photoluminescence quantum yield (in CS(C)=O) was 0.005, the photoluminescence quantum yield (in Cc1ccccc1) was 0.97 and the photoluminescence quantum yield (in ClC(Cl)Cl) was 0.9. The photoluminescence quantum yield (in ClCCl) was 0.13.

`CCCCCCc1ccc2c3c(ccc2c1)O[B-](c1ccccc1)(c1ccccc1)[N+](c1cc([N+]2=Cc4c(ccc5cc(CCCCCC)ccc45)O[B-]2(c2ccccc2)c2ccccc2)cc([N+]2=Cc4c(ccc5cc(CCCCCC)ccc45)O[B-]2(c2ccccc2)c2ccccc2)c1)=C3` showed a photoluminescence quantum yield (in C1CCOC1) of 0.21, a photoluminescence quantum yield (in CC#N) of 0.19 and a photoluminescence quantum yield (in Cc1ccccc1) of 0.29. It also gave a photoluminescence quantum yield (in ClCCl) of 0.31.

Compound `CCn1c2ccc(-c3cccs3)cc2c2cc(-c3cccs3)ccc21` has a photoluminescence quantum yield (in ClCCl) of 0.047.

Work on `CC1(C)c2ccccc2N(c2ccc(-c3ccc(C#N)nc3)cc2)c2ccccc21` yielded a photoluminescence quantum yield (in Cc1ccccc1) of 0.345 and a photoluminescence quantum yield (in N#Cc1ccc2c(c1)c1ccccc1n2-c1cccc(-n2c3ccccc3c3ccccc32)c1) of 0.916.

Compound `COc1ccccc1` has a photoluminescence quantum yield (in C1CCCCC1) of 0.36.

In the case of `Cc1c2c(c(C)c3ccccc13)-c1c-2ccc2nc3ccccc3nc12`, the photoluminescence quantum yield (in ClC(Cl)Cl) is reported as 0.02.

Work on `C(/C=C/Nc1cccc2ccccc12)=[NH+]c1cccc2ccccc12` yielded a photoluminescence quantum yield (in CS(C)=O) of 0.01.

For `C#Cc1ccc2cc(/C=C/C(=O)OCC)c(=O)oc2c1`, the photoluminescence quantum yield (in CCO) was 0.36.

Compound `C/C=C/C=C/C1=NC(=C\c2ccc(O)cc2)/C(=O)N1C` has a photoluminescence quantum yield (in ClC(Cl)Cl) of 0.01 and a photoluminescence quantum yield (in O) of 0.0008.

With `C[C@]12C(=O)NC(=O)N([C@H]3CC(O)[C@@H](CO)O3)[C@H]1[C@H]1Oc3cc4oc(=O)ccc4cc3[C@H]12` (stereo partly specified) the photoluminescence quantum yield (in CC(C)O) was 0.003, the photoluminescence quantum yield (in CCO) was 0.005 and the photoluminescence quantum yield (in CCOCC) was 0.001. It also gave a photoluminescence quantum yield (in CO) of 0.007 and a photoluminescence quantum yield (in O) of 0.044.

For `Cn1c2ccccc2c2cc(/C=C/C3=[O+][B-](F)(F)OC(/C=C/c4ccc5c(c4)c4ccccc4n5C)=C3c3ccccc3)ccc21`, the photoluminescence quantum yield (in ClCCl) was 0.6.

In the case of `CN(C)c1ccc(/C=C/c2cc(/C=C/c3ccc(N(C)C)cc3)nc(/C=C/c3ccc(N(C)C)cc3)n2)cc1`, the photoluminescence quantum yield (in ClCCl) is reported as 0.22.

For `CN(C)c1ccc(/C=C/c2nc(/C=C/c3ccc(N(C)C)cc3)c3ccccc3n2)cc1`, the photoluminescence quantum yield (in ClCCl) was 0.02.
